In BindingDB's records for doi:10.7270/Q2H70D7S (Burnham Center For Chemical Genomics, 2010) one finds IC50 data, which are given here for two molecules.

A word on the pIC50: it is the IC50 on a negative log10 scale, so that one unit is a factor of ten.

Each structure is given as a SMILES string. pIC50: −log10 of the molar value.

The test concerns the target Kappa-type opioid receptor (Homo sapiens, UniProt P41145). Kind of test: kappa opioid receptor blockers, cell-based, luminescence, beta-arrestin, SAR follow-up (AID 2285).

Kappa-type opioid receptor, sequence (P41145 whole entry): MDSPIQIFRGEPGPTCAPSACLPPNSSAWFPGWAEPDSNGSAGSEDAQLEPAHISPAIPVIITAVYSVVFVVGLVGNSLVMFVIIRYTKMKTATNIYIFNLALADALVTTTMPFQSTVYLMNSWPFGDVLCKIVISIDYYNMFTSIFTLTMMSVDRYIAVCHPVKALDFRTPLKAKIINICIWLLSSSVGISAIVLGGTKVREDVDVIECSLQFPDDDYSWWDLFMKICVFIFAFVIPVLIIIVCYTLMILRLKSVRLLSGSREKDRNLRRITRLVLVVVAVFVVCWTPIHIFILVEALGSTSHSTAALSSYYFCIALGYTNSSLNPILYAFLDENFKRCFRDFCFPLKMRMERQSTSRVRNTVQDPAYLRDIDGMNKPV

For `CCC(N=Nc1ccnc2cc(Cl)ccc12)c1ccc(O)cc1` (configuration not stated) [4-[1-[2-(7-chloroquinolin-4-yl)hydrazinyl]propylidene]cyclohexa-2,5-dien-1-one], the pIC50 was 5.45.

For `Oc1ccc(CN=Nc2ccnc3cc(Cl)ccc23)cc1O` [(4Z)-4-[[2-(7-chloroquinolin-4-yl)hydrazinyl]methylidene]-2-hydroxycyclohexa-2,5-dien-1-one], the pIC50 was 5.00.
